Measurements as given in the NIST ThermoML archive (doi:10.1016/j.jct.2014.03.006).
Numbers after ± are expanded uncertainties.

Assay: Boiling temperature at pressure P
Conditions: Liquid, Ebulliometric method (Recirculating still)

Boiling temperature at pressure P (24.5 kPa)	Boiling temperature at pressure P (34 kPa)	Boiling temperature at pressure P (43.5 kPa)	Boiling temperature at pressure P (53 kPa)	Boiling temperature at pressure P (62.5 kPa)	Boiling temperature at pressure P (72 kPa)	Boiling temperature at pressure P (81.5 kPa)	Boiling temperature at pressure P (91 kPa)	Boiling temperature at pressure P (101.3 kPa)	Boiling temperature at pressure P (110 kPa)	Boiling temperature at pressure P (119.5 kPa)	Boiling temperature at pressure P (129 kPa)	Boiling temperature at pressure P (138.5 kPa)	Boiling temperature at pressure P (148 kPa)	Boiling temperature at pressure P (157.5 kPa)	Boiling temperature at pressure P (167 kPa)	Boiling temperature at pressure P (176.5 kPa)	Boiling temperature at pressure P (186 kPa)	Boiling temperature at pressure P (190 kPa)	SMILES
100.4 ± 0.3 °C	110 ± 0.3 °C	117.2 ± 0.3 °C	123.8 ± 0.3 °C	129.5 ± 0.3 °C	134.6 ± 0.3 °C	139 ± 0.3 °C	143.0 ± 0.4 °C	147.6 ± 0.4 °C	150.7 ± 0.4 °C	154.0 ± 0.4 °C	157.2 ± 0.4 °C	160.0 ± 0.4 °C	162.8 ± 0.4 °C	165.2 ± 0.4 °C	168 ± 0.4 °C	170.2 ± 0.4 °C	172.2 ± 0.4 °C	173.1 ± 0.4 °C	CCC/C=C/C=O [(E)-2-hexenal]
89.0 ± 0.2 °C	98.1 ± 0.3 °C	105.2 ± 0.3 °C	111.1 ± 0.3 °C	116.4 ± 0.3 °C	121 ± 0.3 °C	124.8 ± 0.3 °C	128.7 ± 0.3 °C	132.5 ± 0.3 °C	135.6 ± 0.3 °C	138.6 ± 0.3 °C	141.4 ± 0.3 °C	144.2 ± 0.3 °C	147.0 ± 0.3 °C	149.4 ± 0.3 °C	151.7 ± 0.3 °C	154 ± 0.3 °C	156.0 ± 0.3 °C	156.8 ± 0.3 °C	CCOC(=O)C(C)CC (configuration not stated) [ethyl 2-methylbutanoate]
85.0 ± 0.3 °C	94.2 ± 0.3 °C	101.1 ± 0.3 °C	107 ± 0.3 °C	112.2 ± 0.3 °C	116.8 ± 0.3 °C	121 ± 0.3 °C	124.7 ± 0.3 °C	128.8 ± 0.3 °C	131.8 ± 0.3 °C	134.8 ± 0.3 °C	137.5 ± 0.3 °C	140.2 ± 0.3 °C	143 ± 0.3 °C	145.5 ± 0.3 °C	147.7 ± 0.3 °C	149.7 ± 0.3 °C	151.8 ± 0.3 °C	152.7 ± 0.3 °C	CCCCCC=O [hexanal]
